Test results reported in US11261186B2, “Biaryl derivative as GPR120 agonist” (LG CHEM, LTD., priority 2014, dated 2022).
pEC50: −log10 of the molar value.

Molecular target: T1, hGPR120 (Homo sapiens, UniProt Q5NUL3)
T1 construct: expressed in transfected cells; host or cells: CHO-K1
T1 sequence (Q5NUL3 1-361): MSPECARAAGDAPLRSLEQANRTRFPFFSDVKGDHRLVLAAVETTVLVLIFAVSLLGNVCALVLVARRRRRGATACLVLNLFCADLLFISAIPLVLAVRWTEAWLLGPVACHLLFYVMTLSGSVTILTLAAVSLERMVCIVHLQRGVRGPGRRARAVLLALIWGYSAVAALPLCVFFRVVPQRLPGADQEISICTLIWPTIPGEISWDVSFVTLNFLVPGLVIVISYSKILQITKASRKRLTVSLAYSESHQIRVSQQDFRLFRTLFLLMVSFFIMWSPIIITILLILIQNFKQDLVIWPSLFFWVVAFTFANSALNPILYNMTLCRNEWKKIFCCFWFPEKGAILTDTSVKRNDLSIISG
Test: Measurement of Activity of GPR120 Agonist (Cell-Based Assay), Calcium 5 dye fluorescence
Settings: CHO-K1 cells expressing Ga16 and hGPR120
How it was run: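 After an 18 h incubation at 37 °C, the transfected CHO-K1 cells (Gα16, hGPR120) received Calcium 5 dye for 1 h; compound dilutions in 0.5% DMSO were then injected and emission at 525 nm recorded, with values given as % of the vehicle response.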

Row | pEC50 | SMILES
1 | 5.70 to 6.70 | O=C(O)CC1CCN(c2c(F)cc(-c3cccc(C4CCC4)n3)cc2F)CC1 [Example 373, 2-[1-[4-(6-cyclobutyl-2-pyridyl)-2,6-difluoro-phenyl]-4-piperidyl]acetic acid]
2 | > 6.70 | O=C(O)CCC1CCc2cc(-c3cccc(OCC4CC4)n3)ccc2O1 (stereo not shown) [Example 445, 3-[6-[6-(cyclopropylmethoxy)-2-pyridyl]chroman-2-yl]propanoic acid]
3 | > 6.70 | CC(C)n1ccc2ccc(-c3cc(F)c(OCCCC(=O)O)c(F)c3)cc21 [Example 558, 4-[2,6-difluoro-4-(1-isopropyl-1H-indol-6-yl)-phenoxy]-butanoic acid]
4 | > 6.70 | O=C(O)CCCCc1c(F)cc(-c2cccnc2SC2CCCC2)cc1F [Example 36, 5-[4-(2-cyclopentylsulfanyl-3-pyridyl)-2,6-difluoro-phenyl]pentanoic acid]
5 | > 6.70 | CC(CCCC(=O)O)c1ccc(-c2cccnc2SC2CCC2)cc1 (stereo not shown) [Example 39, 5-[4-(2-cyclobutylsulfanyl-3-pyridyl)phenyl]hexanoic acid]
6 | > 6.70 | CN(CCCC(=O)O)c1c(F)cc(-c2cccc3c2OC(F)(F)O3)cc1F [Example 203, 4-{[4-(2,2-difluoro-benzo[1,3]dioxol-4-yl)-2,6-difluoro-phenyl]-methyl-amino}-butyric acid]
7 | > 6.70 | CCCOc1cncc(-c2cc(F)c(N3CCC(CC(=O)O)C3)c(F)c2)n1 (stereo not shown) [Example 495, 2-{1-[2,6-difluoro-4-(6-propoxy-pyrazin-2-yl)phenyl]pyrrolidin-3-yl}acetic acid]
8 | 5.70 to 6.70 | CCCSc1cccc(-c2cc(F)c(N3CCC(CC(=O)O)CC3)c(F)c2)n1 [Example 298, 2-[1-[2,6-difluoro-4-(6-propylsulfanyl-2-pyridyl)phenyl]-4-piperidyl]acetic acid]
9 | > 6.70 | O=C(O)CC1CN(c2c(F)cc(-c3nccc(OCC4CC4)n3)cc2F)C1 [Example 337, 2-[1-[4-[4-(cyclopropylmethoxy)pyrimidin-2-yl]-2,6-difluoro-phenyl]azetidin-3-yl]acetic acid]
10 | 5.70 to 6.70 | CC(CCCC(=O)O)c1c(F)cc(-c2cccnc2OC2COC2)cc1F (stereo not shown) [Example 232, 5-{2,6-difluoro-4-[2-(oxetan-3-yloxy)-pyridin-3-yl]-phenyl}-hexanoic acid]
11 | 5.70 to 6.70 | O=C(O)CCCOc1ccc(-c2cccnc2OCC2CC2)cc1F [Example 240, 4-[4-(2-cyclopropylmethoxy-pyridin-3-yl)-2-fluoro-phenoxy]-butyric acid]
12 | > 6.70 | O=C(O)CCCCNc1c(F)cc(-c2cccnc2OCC2CC2)cc1F [Example 99, 5-[4-[2-(cyclopropylmethoxy)-3-pyridyl]-2,6-difluoro-anilino]pentanoic acid]
13 | > 6.70 | O=C(O)CCC1CC1c1c(F)cc(-c2cccnc2OC2CCCC2)cc1F (stereo not shown) [Example 175, 3-{2-[4-(2-cyclopentyloxy-pyridin-3-yl)-2,6-difluoro-phenyl]-cyclopropyl}-propanoic acid]
14 | 5.70 to 6.70 | O=C(O)CC1CCN(c2c(F)cc(-c3nccc(Oc4ccccn4)n3)cc2F)CC1 [Example 609, 2-[1-[2,6-difluoro-4-[4-(2-pyridyloxy)pyrimidin-2-yl]phenyl]-4-piperidyl]acetic acid]
15 | 5.70 to 6.70 | CCCOc1ncccc1-c1cc(F)c(N2CCC(CC(=O)O)CC2)c(F)c1 [Example 120, 2-[1-[2,6-difluoro-4-(2-propoxy-3-pyridyl)phenyl]-4-piperidyl]acetic acid]
16 | > 6.70 | Cc1ccc(-c2cc(F)c(OCCCC(=O)O)c(F)c2)cc1OCC1CC1 [Example 532, 4-(3′-cyclopropylmethoxy-3,5-difluoro-4′-methyl-biphenyl-4-yloxy)-butyric acid]
17 | > 6.70 | CC(C)Sc1ncccc1-c1ccc2c(c1)CCC(CCC(=O)O)S2 (stereo not shown) [Example 270, 3-[6-(2-isopropylsulfanyl-pyridin-3-yl)-thiochroman-2-yl]-propionic acid]
18 | > 6.70 | O=C(O)CC1CCN(c2c(F)cc(-c3cccnc3OCC3CC3)cc2F)CC1 [Example 121, 2-[1-[4-[2-(cyclopropylmethoxy)-3-pyridyl]-2,6-difluoro-phenyl]-4-piperidyl]acetic acid]
19 | 5.70 to 6.70 | COc1ccc(-c2cc(F)c(C3CC3CCC(=O)O)c(F)c2)c2c1OC(C)(C)C2 (stereo not shown) [Example 442, 3-[2-[2,6-difluoro-4-(7-methoxy-2,2-dimethyl-3H-benzofuran-4-yl)phenyl]cyclopropyl]propanoic acid]
20 | 5.70 to 6.70 | O=C(O)CCSCc1ccc(-c2cccnc2OC2CCCC2)cc1 [Example 293, 3-[4-(2-cyclopentyloxy-pyridin-3-yl)-benzylsulfanyl]-propionic acid]
21 | > 6.70 | CC1(C)Cc2c(cccc2-c2ccc(OCCCC(=O)O)cc2)O1 [Example 193, 4-[4-(2,2-dimethyl-2,3-dihydro-benzofuran-4-yl)-phenoxy]-butyric acid]
22 | > 6.70 | O=C(O)CCCOc1c(F)cc(-c2cccc(OCC3CC3)n2)cc1Cl [Example 401, 4-[2-chloro-4-(6-cyclopropylmethoxy-pyridin-2-yl)-6-fluoro-phenoxy]-butyric acid]
23 | > 6.70 | O=C(O)CC1CCN(c2c(F)cc(-c3cccc(OCC4CC4)n3)cc2F)C1 (stereo not shown) [Example 560, {1-[4-(6-cyclopropylmethoxy-pyridin-2-yl)-2,6-difluoro-phenyl]-pyrrolidin-3-yl}-acetic acid]
24 | 5.70 to 6.70 | CC1(C)Cc2cc(Cl)cc(-c3cc(F)c(SCCCC(=O)O)c(F)c3)c2O1 [Example 254, 4-[4-(5-chloro-2,2-dimethyl-2,3-dihydro-benzofuran-7-yl)-2,6-difluoro-phenylsulfanyl]-butyric acid]
25 | > 6.70 | CCCOc1cc(C)nc(-c2cc(F)c(N3CCC(CC(=O)O)CC3)c(F)c2)n1 [Example 351, 2-[1-[2,6-difluoro-4-(4-methyl-6-propoxy-pyrimidin-2-yl)phenyl]-4-piperidyl]acetic acid]
26 | 5.70 to 6.70 | CCOc1cccc(-c2cc(F)c(N3CCC(CCC(=O)O)CC3)c(F)c2)n1 [Example 622, 3-{1-[4-(6-ethoxy-pyridin-2-yl)-2,6-difluoro-phenyl]-piperidin-4-yl}-propionic acid]
27 | > 6.70 | Oc1cc(COc2c(F)cc(-c3cccnc3SC3CCC3)cc2F)on1 [Example 61, 5-[[4-(2-cyclobutylsulfanyl-3-pyridyl)-2,6-difluoro-phenoxy]methyl]isoxazol-3-ol]

Row | SMILES | pEC50
28 | CC(C)COc1cncc(-c2cc(F)c(N3CCC(CC(=O)O)C3)c(F)c2)n1 (stereo not shown) [Example 496, 2-{1-[2,6-difluoro-4-(6-isobutoxy-pyrazin-2-yl)phenyl]pyrrolidin-3-yl}acetic acid] | 5.70 to 6.70
29 | O=C(O)CCCCc1ccc(-c2cccc(OC3CCC3)n2)cc1F [Example 537, 5-[4-(6-cyclobutoxy-pyridin-2-yl)-2-fluoro-phenyl]-pentanoic acid] | > 6.70
30 | O=C(O)C1CC1COc1c(F)cc(-c2cncc(OC3CCC3)n2)cc1F (stereo not shown) [Example 550, 2-[4-(6-cyclobutoxy-pyrazin-2-yl)-2,6-difluoro-phenoxymethyl]-cyclopropanecarboxylic acid] | > 6.70
31 | O=C(O)CC1CCN(c2c(F)cc(-c3nccc(OC4CCC4)n3)cc2F)CC1 [Example 330, 2-[1-[4-[4-(cyclobutoxy)pyrimidin-2-yl]-2,6-difluoro-phenyl]-4-piperidyl]acetic acid] | > 6.70
32 | O=C(O)CCCOc1c(F)cc(-c2ccnc(OC3CCC3)n2)cc1F [Example 421, 4-[4-(2-cyclobutoxy-pyrimidin-4-yl)-2,6-difluoro-phenoxy]-butyric acid] | > 6.70
33 | Oc1cc(CSc2ccc(-c3cccnc3OC3CCCC3)cc2)on1 [Example 81, 5-[[4-[2-(cyclopentoxy)-3-pyridyl]phenyl]sulfanylmethyl]isoxazol-3-ol] | > 6.70
34 | O=C(O)CCCCc1c(F)cc(-c2cccc(OC3CCC3)n2)cc1F [Example 32, 5-[4-(6-cyclobutoxy-2-pyridyl)-2,6-difluoro-phenyl]pentanoic acid] | > 6.70
35 | O=C(O)CC1CCN(c2c(F)cc(-c3cccc(OC4CCCC4)n3)cc2F)CC1 [Example 299, 2-[1-[4-[6-(cyclopentoxy)-2-pyridyl]-2,6-difluoro-phenyl]-4-piperidyl]acetic acid] | 5.70 to 6.70
36 | CC(C)COCc1cc(-c2cc(F)c(OCCCC(=O)O)c(F)c2)cs1 [Example 572, 4-[2,6-difluoro-4-(5-isobutoxymethyl-thiophen-3-yl)-phenoxy]-butanoic acid] | > 6.70
37 | COc1ccc(-c2ccc(C(F)(F)CCCC(=O)O)cc2)nc1OC1CCC1 [Example 464, 5-[4-[6-(cyclobutoxy)-5-methoxy-2-pyridyl]phenyl]-5,5-difluoro-pentanoic acid] | > 6.70
38 | O=C(O)CC1CCN(c2c(F)cc(-c3ccc(F)c(OC4CCC4)c3)cc2F)CC1 [Example 304, 2-[1-[4-[3-(cyclobutoxy)-4-fluoro-phenyl]-2,6-difluoro-phenyl]-4-piperidyl]acetic acid] | 5.70 to 6.70
39 | CN(CCCC(=O)O)c1c(F)cc(-c2cccc(OC3CCC3)c2)cc1F [Example 199, 4-[(3′-cyclobutoxy-3,5-difluoro-biphenyl-4-yl)-methyl-amino]-butyric acid] | > 6.70
40 | O=C(O)CC1CCN(c2c(F)cc(-c3cccc(OC4CCC4)n3)cc2F)C1 (stereo not shown) [Example 561, {1-[4-(6-cyclobutoxy-pyridin-2-yl)-2,6-difluoro-phenyl]-pyrrolidin-3-yl}-acetic acid] | > 6.70
